Laboratory results reported in patent US8420820B2, “Pyrrolopyridinylpyrimidin-2-ylamine derivatives” (Merck Patent GmbH, priority 2008, dated 2013).

Experiments:
[1] = molecular target: T1, PDK1 (Homo sapiens, UniProt O15530); test: Test for the inhibition of PDK1 (flashplate, 33P-ATP); type: biochemical; conditions: His6-PDK1 3.4 nM, 4 μM ATP, 30° C., 60 min
T1 construct: His6 (N)
Method: The experimental batches are carried out in a flashplate system with 384 wells/microtitration plate.
In each case, the PDK1 sample His6-PDK1(SEQ ID NO: 2)(1-50)(3.4 nM), the PDK1 substrate biotin-bA-bA-[…] (SEQ ID NO: 3) (400 nM), 4 μM ATP (with 0.2 μCi of ^33P-ATP/well) and the test substance in 50 μl of conventional experimental solution per well are incubated at 30° C. for 60 min. The test substances are employed in corresponding concentrations (if desired in a dilution series). The control is carried out without test substance. The reaction is stopped using standard methods and washed. The activity of the kinase is measured via the incorporated radioactivity in top count. In order to determine the non-specific kinase reaction (blank value), the experimental batches are carried out in the presence of 100 nM staurosporin.
The radioactivity (decompositions per minute) of the blank value (no use of test substance in the presence of staurosporin) is subtracted from all other radioactivity values. The controls (kinase activity without test substance) are set equal to 100 percent and all other radioactivity values (after subtracting the blank value) are expressed set in relation thereto (for example in % of the control).
IC50 values (50% inhibition) are determined with the aid of statistics programmes, such as, for example, RS1.

[2] = system: PDK1 kinase activity in PC3 cells (phospho-T308-PKB); test: Cellular testing of PDK1 kinase inhibitors in PC3 cells (Luminex, phospho-T308-PKB); type: cell-based; conditions: Homo sapiens, PC-3, 0.5 h, 30 min with test substance, serum-free, phospho-T308-PKB by Luminex, read-out: IC50 [PC3 P-PKB Thr308]
Method: Method for the Cellular Testing of PDK1 Kinase Inhibitors in PC3 Cells.
The cellular assay for the determination of the PDK1 kinase activity is carried out as a Luminex assay in the 96-well format. PC3 cells are sown at 20,000 cells per well in 100 μl of medium (45% of […]/45% of Ham's F12/10% of FCS) and incubated on the following day for 30 min with a serial dilution of the test substance (7 concentrations) under serum-free conditions. The cells are subsequently lysed using 90 μl of lysis buffer (20 mM tris/HCl pH 8.0, 150 mM NaCl, 1% of NP40, 10% of glycerol, 1% of phosphatase inhibitor I, 1% of phosphatase inhibitor II, 0.1% of protease inhibitor cocktail III, 0.01% of benzonase) per well, and the lysates are separated off from insoluble cell constituents by means of centrifugation through a 96-well filter plate (0.65 μm). The lysates are incubated overnight at 4° C. with shaking with Luminex beads to which an anti-total PKB antibody is coupled. The detection is carried out on the following day by addition of a phospho-T308-PKB antibody and a species-specific […] secondary antibody. The detection of phospho-T308-PKB is carried out by measurement in a Luminex100 instrument by determination of 100 events per cavity in a measurement time of 60 sec. As pharmacological blank, the signals obtained from cells which have been treated with 10 μM staurosporin are subtracted from all other batches. The control value used for maximum phosphorylation of PKB on T308 are the signals from cells which have only been treated with the solvent (0.3% of DMSO). The values of the batches treated with test substance are calculated therefrom as percentage of control, and IC50 values are determined by means of RS1.

T1 sequence (O15530 51-556): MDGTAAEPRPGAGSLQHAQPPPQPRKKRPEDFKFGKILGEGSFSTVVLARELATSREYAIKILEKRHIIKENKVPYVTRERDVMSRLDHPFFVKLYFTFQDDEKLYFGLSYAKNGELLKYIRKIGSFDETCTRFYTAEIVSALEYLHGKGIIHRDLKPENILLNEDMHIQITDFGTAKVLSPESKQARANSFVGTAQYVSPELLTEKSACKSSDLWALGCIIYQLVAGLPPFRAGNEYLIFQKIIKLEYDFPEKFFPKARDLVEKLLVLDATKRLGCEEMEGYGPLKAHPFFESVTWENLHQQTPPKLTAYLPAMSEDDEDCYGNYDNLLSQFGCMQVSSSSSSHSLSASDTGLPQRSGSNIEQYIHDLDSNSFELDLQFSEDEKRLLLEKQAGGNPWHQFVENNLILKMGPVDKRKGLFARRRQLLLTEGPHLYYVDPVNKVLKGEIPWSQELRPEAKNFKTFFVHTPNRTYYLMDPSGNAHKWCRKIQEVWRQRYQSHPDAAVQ

**Q.** Which results are given for `CC(C)n1cc(-c2cnc3[nH]cc(-c4cc(C5(O)CCN(CCc6ccc(F)cc6)CC5)nc(N)n4)c3c2)cn1` [Compound A116, 4-{2-Amino-6-[5-(1-isopropyl-1H-pyrazol-4-yl)-1H-pyrrolo[2,3-b]pyridin-3-yl]-pyrimidin-4-yl}-1-[2-(4-fluorophenyl)ethyl]piperidin-4-ol]?
**A.** IC50 [1]: 0.01 to 1 µM; IC50 [2]: 10 to 20 µM

**Q.** `CCc1cc(-c2c[nH]c3ncc(-c4cnn(CC(=O)N5CCCc6ccccc65)c4)cc23)nc(NC)n1` [Compound A73, 1-(3,4-Dihydro-2H-quinolin-1-yl)-2-{4-[3-(6-ethyl-2-methylaminopyrimidin-4-yl)-1H-pyrrolo[2,3-b]pyridin-5-yl]pyrazol-1-yl}ethanone] was tested. Which IC50 [1] did it give?
**A.** 0.01 to 1 µM

**Q.** For `CCc1cc(-c2c[nH]c3ncc(-c4ccc(CN)cc4)cc23)nc(N)n1` [Compound A81, 4-[5-(4-Aminomethylphenyl)-1H-pyrrolo[2,3-b]pyridin-3-yl]-6-ethylpyrimidin-2-ylamine], which IC50 [1] is on record?
**A.** 0.01 to 1 µM

**Q.** And the IC50 [2]?
**A.** 1 to 10 µM

**Q.** How did the IC50 [1] turn out when `CCc1cc(-c2c[nH]c3ncc(-c4cnn(CCO)c4)cc23)nc(N)n1` [Compound A33, 2-{4-[3-(2-Amino-6-ethylpyrimidin-4-yl)-1H-pyrrolo[2,3-b]pyridin-5-yl]pyrazol-1-yl}ethanol] was run?
**A.** 0.01 to 1 µM

**Q.** What about the IC50 [2] of the same compound?
**A.** 10 to 20 µM

**Q.** How did the IC50 [1] turn out when `CCCCc1cc(-c2c[nH]c3ncc(-c4cnn(C5CCNCC5)c4)cc23)nc(NC)n1` [Compound A70, {4-Butyl-6-[5-(1-piperidin-4-yl-1H-pyrazol-4-yl)-1H-pyrrolo[2,3-b]pyridin-3-yl]pyrimidin-2-yl}methylamine] was run?
**A.** 0.01 to 1 µM

**Q.** For `CCc1cc(-c2c[nH]c3ncc(-c4cnn(CCN(C)C)c4)cc23)nc(N)n1` [Compound A1, 4-{5-[1-(2-dimethylaminoethyl)-1H-pyrazol-4-yl]-1H-pyrrolo[2,3-b]pyridin-3-yl}-6-ethylpyrimidin-2-ylamine], which IC50 [1] is on record?
**A.** 0.01 to 1 µM

**Q.** And the IC50 [2]?
**A.** 10 to 20 µM

**Q.** What does the source list for `CCc1cc(-c2c[nH]c3ncc(-c4ccc(N5CCNCC5)nc4)cc23)nc(N)n1` [Compound A10, 4-ethyl-6-[5-(6-piperazin-1-ylpyridin-3-yl)-1H-pyrrolo[2,3-b]pyridin-3-yl]pyrimidin-2-ylamine]?
**A.** IC50 [1]: 0.01 to 1 µM; IC50 [2]: 1 to 10 µM

**Q.** How did the IC50 [1] turn out when `CC(C)Cn1cc(-c2cnc3[nH]cc(-c4cc(CCCN)nc(N)n4)c3c2)cn1` [Compound A84, 4-(3-Aminopropyl)-6-[5-(1-isobutyl-1H-pyrazol-4-yl)-1H-pyrrolo[2,3-b]pyridin-3-yl]pyrimidin-2-ylamine] was run?
**A.** 0.01 to 1 µM

**Q.** `COc1nc(Cc2ccccc2)cc(-c2c[nH]c3ncc(-c4cnn(C(C)C)c4)cc23)n1` [Compound A74, 3-(6-Benzyl-2-methoxypyrimidin-4-yl)-5-(1-isopropyl-1H-pyrazol-4-yl)-1H-pyrrolo[2,3-b]pyridine] was tested. Which IC50 [1] did it give?
**A.** 1 to 10 µM

**Q.** With `CCc1cc(-c2c[nH]c3ncc(-c4cnn(C(C)C)c4)cc23)nc(NC)n1` [Compound A60, {4-Ethyl-6-[5-(1-isopropyl-1H-pyrazol-4-yl)-1H-pyrrolo[2,3-b]pyridin-3-yl]-pyrimidin-2-yl}methylamine] as the compound, how does the IC50 [1] read?
**A.** 0.01 to 1 µM

**Q.** With `CCC(O)c1cc(-c2c[nH]c3ncc(-c4cnn(C(C)C)c4)cc23)nc(N)n1` (centres unmarked) [Compound A103, 1-{2-Amino-6-[5-(1-isopropyl-1H-pyrazol-4-yl)-1H-pyrrolo[2,3-b]pyridin-3-yl]-pyrimidin-4-yl}propan-1-ol] as the compound, how does the IC50 [1] read?
**A.** 0.01 to 1 µM

**Q.** And the IC50 [2]?
**A.** 10 to 20 µM

**Q.** With `CCc1cc(-c2c[nH]c3ncc(-c4cnn(CC(=O)N5CCCC5)c4)cc23)nc(NC)n1` [Compound A66, 2-{4-[3-(6-Ethyl-2-methylaminopyrimidin-4-yl)-1H-pyrrolo[2,3-b]pyridin-5-yl]-pyrazol-1-yl}-1-pyrrolidin-1-ylethanone] as the compound, how does the IC50 [1] read?
**A.** 0.01 to 1 µM

**Q.** Which IC50 [1] does the source give for `CC(C)n1cc(-c2cnc3[nH]cc(-c4cc(C5CCCCC5)nc(N)n4)c3c2)cn1` [Compound A111, 4-Cyclohexyl-6-[5-(1-isopropyl-1H-pyrazol-4-yl)-1H-pyrrolo[2,3-b]pyridin-3-yl]pyrimidin-2-ylamine] here?
**A.** 0.01 to 1 µM

**Q.** And the IC50 [2]?
**A.** 1 to 10 µM

**Q.** For `CCc1cc(-c2c[nH]c3ncc(-c4cnn(C)c4)cc23)nc(NC)n1` [Compound A63, {4-Ethyl-6-[5-(1-methyl-1H-pyrazol-4-yl)-1H-pyrrolo[2,3-b]pyridin-3-yl]-pyrimidin-2-yl}methylamine], which IC50 [1] is on record?
**A.** 0.01 to 1 µM

**Q.** What does the source list for `CN1CCN(CCc2cc(-c3c[nH]c4ncccc34)nc(N)n2)CC1` [Compound A50, 4-[2-(4-Methylpiperazin-1-yl)ethyl]-6-(1H-pyrrolo[2,3-b]pyridin-3-yl)pyrimidin-2-ylamine]?
**A.** IC50 [1]: 1 to 10 µM; IC50 [2]: 10 to 20 µM

**Q.** With `CCc1cc(-c2c[nH]c3ncc(-c4cnn(C5CCNCC5)c4)cc23)nc(NC)n1` [Compound A64, {4-Ethyl-6-[5-(1-piperidin-4-yl-1H-pyrazol-4-yl)-1H-pyrrolo[2,3-b]pyridin-3-yl]pyrimidin-2-yl}methylamine] as the compound, how does the IC50 [1] read?
**A.** 0.01 to 1 µM

**Q.** `CN(C)CCNC(=O)CCc1cc(-c2c[nH]c3ncccc23)nc(N)n1` [Compound A83, 3-[2-Amino-6-(1H-pyrrolo[2,3-b]pyridin-3-yl)pyrimidin-4-yl]-N-(2-dimethylaminoethyl)propionamide] was tested. Which IC50 [1] did it give?
**A.** 1 to 10 µM

**Q.** How did the IC50 [1] turn out when `CCc1cc(-c2c[nH]c3ncc(-c4cnn(CC(=O)N5CCCCC5)c4)cc23)nc(NC)n1` [Compound A65, 2-{4-[3-(6-Ethyl-2-methylaminopyrimidin-4-yl)-1H-pyrrolo[2,3-b]pyridin-5-yl]-pyrazol-1-yl}-1-piperidin-1-ylethanone] was run?
**A.** 0.01 to 1 µM

**Q.** How did the IC50 [1] turn out when `CCc1cc(-c2c[nH]c3ncc(-c4cnn(CCO)c4)cc23)nc(NC)n1` [Compound A68, 2-{4-[3-(6-Ethyl-2-methylaminopyrimidin-4-yl)-1H-pyrrolo[2,3-b]pyridin-5-yl]-pyrazol-1-yl}ethanol] was run?
**A.** 0.01 to 1 µM

**Q.** How did the IC50 [1] turn out when `CCc1cc(-c2c[nH]c3ncc(-c4cnn(CCN(C)C)c4)cc23)nc(NC)n1` [Compound A61, (4-{5-[1-(2-Dimethylaminoethyl)-1H-pyrazol-4-yl]-1H-pyrrolo[2,3-b]pyridin-3-yl}-6-ethylpyrimidin-2-yl)methylamine] was run?
**A.** 0.01 to 1 µM

**Q.** `CCc1cc(-c2c[nH]c3ncc(-c4cnn(C(C)C(=O)Nc5ccc6[nH]ccc6c5)c4)cc23)nc(NC)n1` (centres unmarked) [Compound A72, 2-{4-[3-(6-Ethyl-2-methylaminopyrimidin-4-yl)-1H-pyrrolo[2,3-b]pyridin-5-yl]-pyrazol-1-yl}-N-(1H-indol-5-yl)propionamide] was tested. Which IC50 [1] did it give?
**A.** 0.01 to 1 µM

**Q.** `CCCCc1cc(-c2c[nH]c3ncc(-c4cnn(CCO)c4)cc23)nc(NC)n1` [Compound A67, 2-{4-[3-(6-Butyl-2-methylaminopyrimidin-4-yl)-1H-pyrrolo[2,3-b]pyridin-5-yl]-pyrazol-1-yl}ethanol] was tested. Which IC50 [1] did it give?
**A.** 0.01 to 1 µM

**Q.** How did the IC50 [1] turn out when `CCc1cc(-c2c[nH]c3ncc(-c4cnn(C(C)C)c4)cc23)nc(OC)n1` [Compound A75, 3-(6-Ethyl-2-methoxypyrimidin-4-yl)-5-(1-isopropyl-1H-pyrazol-4-yl)-1H-pyrrolo[2,3-b]pyridine] was run?
**A.** 0.01 to 1 µM

**Q.** How did the IC50 [1] turn out when `Nc1nc(CCCCO)cc(-c2c[nH]c3ncccc23)n1` [Compound A45, 4-[2-Amino-6-(1H-pyrrolo[2,3-b]pyridin-3-yl)pyrimidin-4-yl]butan-1-ol] was run?
**A.** 1 to 10 µM

**Q.** How did the IC50 [1] turn out when `CCCCc1cc(-c2c[nH]c3ncc(-c4cnn(C5CCN(C)CC5)c4)cc23)nc(NC)n1` [Compound A71, (4-Butyl-6-{5-[1-(1-methylpiperidin-4-yl)-1H-pyrazol-4-yl]-1H-pyrrolo[2,3-b]-pyridin-3-yl}pyrimidin-2-yl)methylamine] was run?
**A.** 0.01 to 1 µM

**Q.** How did the IC50 [1] turn out when `CCc1cc(-c2c[nH]c3ncc(-c4cn[nH]c4)cc23)nc(NC)n1` [Compound A62, {4-Ethyl-6-[5-(1H-pyrazol-4-yl)-1H-pyrrolo[2,3-b]pyridin-3-yl]pyrimidin-2-yl}-methylamine] was run?
**A.** 0.01 to 1 µM

**Q.** For `Nc1nc(CCC(=O)N2CCOCC2)cc(-c2c[nH]c3ncccc23)n1` [Compound A82, 3-[2-Amino-6-(1H-pyrrolo[2,3-b]pyridin-3-yl)pyrimidin-4-yl]-1-morpholin-4-ylpropan-1-one], which IC50 [1] is on record?
**A.** 1 to 10 µM
